In US20100261719A1, “CHEMICAL COMPOUNDS” (priority 2007, published 2010):
Values after ≈ are worked out from the molar mass of the structure shown.

Legend:
[1] = tested on: Sau516; experiment: Bacterial susceptibility testing (MIC), Sau516; type: cell-based; details: Staphylococcus aureus, liquid media, 37° C., 24 hours, lowest concentration reducing growth by 80% or more
Description: (§1) Compounds may be tested for antimicrobial activity by susceptibility testing in liquid media in a 96 well format. Compounds may be dissolved in dimethylsulfoxide and tested in 10 doubling dilutions in the susceptibility assays. The organisms used in the assay may be grown overnight on suitable agar media and then suspended in a liquid medium appropriate for the growth of the organism. The suspension may be a 0.5 McFarland and a further 1 in 10 dilution may be advantageously made into the same liquid medium to prepare the final organism suspension in 100 μL. Plates may be incubated under appropriate conditions at 37° C. for 24 hours prior to reading. The Minimum Inhibitory Concentration (MIC) is intended to refer to the lowest drug concentration able to reduce growth by 80% or more.
(§2) Compounds may be evaluated against organisms such as Gram-positive species, including Staphylococcus aureus, Streptococcus pneumoniae, and Streptococcus pyogenes; and Gram-negative species including Haemophilus influenzae, and Moraxella catarrhalis.

[2] = tested on: Sau517; experiment: Bacterial susceptibility testing (MIC), Sau517; type: cell-based; details: Staphylococcus aureus, liquid media, 37° C., 24 hours, lowest concentration reducing growth by 80% or more
Description: as §1, §2

[3] = tested on: Spy838; experiment: Bacterial susceptibility testing (MIC), Spy838; type: cell-based; details: Streptococcus pyogenes, liquid media, 37° C., 24 hours, lowest concentration reducing growth by 80% or more
Description: as §1, §2

[4] = tested on: Spn548; experiment: Bacterial susceptibility testing (MIC), Spn548; type: cell-based; details: Streptococcus pneumoniae, liquid media, 37° C., 24 hours, lowest concentration reducing growth by 80% or more
Description: as §1, §2

[5] = tested on: Spn538; experiment: Bacterial susceptibility testing (MIC), Spn538; type: cell-based; details: Streptococcus pneumoniae, liquid media, 37° C., 24 hours, lowest concentration reducing growth by 80% or more
Description: as §1, §2

[6] = tested on: Hin446; experiment: Bacterial susceptibility testing (MIC), Hin446; type: cell-based; details: Haemophilus influenzae, liquid media, 37° C., 24 hours, lowest concentration reducing growth by 80% or more
Description: as §1, §2

[7] = tested on: Hin737; experiment: Bacterial susceptibility testing (MIC), Hin737; type: cell-based; details: Haemophilus influenzae, liquid media, 37° C., 24 hours, lowest concentration reducing growth by 80% or more
Description: as §1, §2

[8] = tested on: Hin158; experiment: Bacterial susceptibility testing (MIC), Hin158; type: cell-based; details: Haemophilus influenzae, liquid media, 37° C., 24 hours, lowest concentration reducing growth by 80% or more
Description: as §1, §2

[9] = tested on: Mca445; experiment: Bacterial susceptibility testing (MIC), Mca445; type: cell-based; details: Moraxella catarrhalis, liquid media, 37° C., 24 hours, lowest concentration reducing growth by 80% or more
Description: as §1, §2

[10] = target: Escherichia coli DNA gyrase A/B tetramer (Escherichia coli, UniProt P0AES4+P0AES6); experiment: DNA gyrase supercoiling activity fluorescence polarisation assay; type: biochemical
Chain of Escherichia coli DNA gyrase A/B tetramer (P0AES4 whole entry, one chain of several): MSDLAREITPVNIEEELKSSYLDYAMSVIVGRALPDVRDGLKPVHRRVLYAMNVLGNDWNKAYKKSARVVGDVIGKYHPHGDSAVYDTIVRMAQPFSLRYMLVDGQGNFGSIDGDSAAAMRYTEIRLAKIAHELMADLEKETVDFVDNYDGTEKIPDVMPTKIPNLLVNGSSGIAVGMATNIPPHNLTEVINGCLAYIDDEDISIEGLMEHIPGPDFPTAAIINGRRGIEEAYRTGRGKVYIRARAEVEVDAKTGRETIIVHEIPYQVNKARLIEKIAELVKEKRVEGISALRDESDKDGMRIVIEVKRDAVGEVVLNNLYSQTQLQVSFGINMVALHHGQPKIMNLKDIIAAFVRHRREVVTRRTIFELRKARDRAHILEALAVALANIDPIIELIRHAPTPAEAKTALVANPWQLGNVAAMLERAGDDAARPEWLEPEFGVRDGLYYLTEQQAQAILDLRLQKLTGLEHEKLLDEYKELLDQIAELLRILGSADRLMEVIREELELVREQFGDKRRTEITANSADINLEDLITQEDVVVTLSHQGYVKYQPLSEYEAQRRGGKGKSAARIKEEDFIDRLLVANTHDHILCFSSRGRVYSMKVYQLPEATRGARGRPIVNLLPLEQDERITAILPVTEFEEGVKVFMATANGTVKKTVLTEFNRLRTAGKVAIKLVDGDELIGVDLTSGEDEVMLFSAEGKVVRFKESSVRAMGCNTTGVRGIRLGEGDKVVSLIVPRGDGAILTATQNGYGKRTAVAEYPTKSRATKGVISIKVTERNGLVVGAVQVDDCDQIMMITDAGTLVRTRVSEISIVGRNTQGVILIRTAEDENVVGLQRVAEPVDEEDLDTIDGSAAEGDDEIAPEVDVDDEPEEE
How it was run: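 5 nM gyrase supercoils 130 μg/ml relaxed triplex-sequence plasmid with 0.3 mM ATP in Tris pH 7.5/KCl/MgCl2/spermidine buffer, 0.8% DMSO, ~30 min at ambient temperature, 5-10 compound concentrations. Quenched with 40 nM BODIPY-FL triplex probe at pH 3.5; anisotropy read after 60 min (485/535 nm). IC50 by nonlinear regression against no-compound and 5 uM ciprofloxacin controls.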

`C[C@@H]1CN2c3ccc(C#C[Si](C)(C)C)cc3CC3(C(=O)NC(=O)NC3=O)[C@H]2[C@H](C)O1` (racemic) [Example 1, (2R,4S,4aS)-rel-2,4-Dimethyl-8-((trimethylsilypethynyl)-2,4,4a,6-tetrahydro-1H,1′H-spiro[[1,4]oxazino[4,3-a]quinoline-5,5′-pyrimidine]-2′,4′,6′(3′H)-trion] was tested, and the MIC [1] was 8 µg/mL (≈ 18.8 µM), the MIC [2] was 8 µg/mL (≈ 18.8 µM) and the MIC [3] was 16 µg/mL (≈ 37.6 µM). The MIC [4] was 16 µg/mL (≈ 37.6 µM), the MIC [5] was 32 µg/mL (≈ 75.2 µM) and the MIC [6] was 4 µg/mL (≈ 9.4 µM). For the same compound, the MIC [7] was 16 µg/mL (≈ 37.6 µM), the MIC [8] was 0.13 µg/mL (≈ 0.305 µM) and the MIC [9] was 2 µg/mL (≈ 4.7 µM). It also gave an IC50 [10] of 7.57 µM.
